Columns and labels:
TGF-β1 = biological target: T1, TGF-β1 (Homo sapiens, UniProt P01137); test: GAG-binding plate assay; conditions: wells coated with 5 μg/ml GAG; TGF-β1 100, 200 or 400 ng/ml
T1 construct: full length mature TGF-β1 is 112 amino acids in length
Experimental: GAGs are immobilized in each well and then challenged with TGF-β1 according to the manufacturer's instructions. Briefly, triplicate wells are first pre-coated with 5 μg/ml of heparin, HS^PM, HS16^+ve or HS16^−ve in standard assay buffer (SAB: 100 mM NaCl, 50 mM sodium acetate, 0.2% v/v Tween 20, pH 7.2), and then incubated overnight at room temperature. The plates are next washed carefully three times with SAB, blocked with 250 μl of blocking solution (0.4% w/v fish skin gelatine, Sigma-Aldrich, in SAB) and incubated for 1 h at 37° C. TGF-β1 was then dissolved in blocking solution at a concentration of 100, 200, or 400 ng/ml. The plates are washed three times with SAB and each dilution of protein (200 μl) is dispensed into triplicate wells and incubated for 2 h at 37° C., rinsed with SAB and 200 μl of 750 ng/ml monoclonal mouse anti-TGF-β1 antibody (MAB2401, R&D Systems) added in blocking solution. Plates are then incubated for 1 h at 37° C., washed with SAB, and 200 μl of 1 μg/ml polyclonal goat anti-mouse biotinylated antibody (ab6788, Abcam) added in blocking solution. Again, plates are incubated for 1 h at 37° C., washed with SAB, and 200 μl of 220 ng/ml ExtrAvidin AP (Sigma-Aldrich) is added in blocking solution, incubated for 30 min at 37° C., and then rinsed with SAB. Finally, 200 μl of development reagent (SigmaFAST p-Nitrophenyl phosphate, Sigma-Aldrich) is added, incubated at 37° C. for 40 min and read at 405 nm within 1 h.
To determine the ability of TGF-β1 to bind to heparin, we utilized positively-charged GAG-binding plates (Iduron) as a capture substrate. GAGs were immobilized in each well and then challenged with TGF-β1 according to the manufacturer's instructions. Briefly, triplicate wells were first pre-coated with 5 μg/ml of full length heparin, size-fractionated heparin (dp14, 16, 18, 20, 22 and 24) or selectively […] heparin prepared in standard assay buffer (SAB: 100 mM NaCl, 50 mM sodium acetate, 0.2% v/v Tween 20, pH 7.2), and then incubated overnight at room temperature. The plates were next washed carefully three times with SAB, blocked with 250 μl of blocking solution (0.4% w/v fish skin gelatine, Sigma-Aldrich, in SAB) and incubated for 1 h at 37° C. TGF-β1 was then dissolved in blocking solution at a concentration of 100, 200, or 400 ng/ml. The plates were washed three times with SAB and each dilution of protein (200 μl) was dispensed into triplicate wells and incubated for 2 h at 37° C., rinsed with SAB and 200 μl of 750 ng/ml monoclonal mouse anti-TGF-β1 antibody (MAB2401, R&D Systems) added in blocking solution. […] Finally, 200 μl of development reagent (SigmaFAST p-Nitrophenyl phosphate, Sigma-Aldrich) was added, incubated at 37° C. for 40 min and read at 405 nm within 1 h.

[1] = tested on: TGF-β1 signaling (pSMAD2, pSMAD3) in hMSCs; test: Western blotting of pSMAD2/pSMAD3 in hMSCs treated with TGF-β1 and GAG; type: cell-based, human
Experimental: Primary hMSCs (Lonza) were isolated from the bone marrow mononuclear cells of a young healthy adult human donor by plastic adherence and characterized as previously described (30,31). The adherent cells were maintained in a basal media consisting of DMEM-low glucose (1000 mg/l, DMEM-LG) supplemented with 10% fetal calf serum, 100 U/ml penicillin, 100 μg/ml streptomycin and 2 mM L-glutamine, and cultured under standard conditions at 37° C. and 5% CO2 in a humidified atmosphere. Media replacement was every three days. Cells were detached with 0.125% trypsin/Versene (pH 7.0) upon reaching 75-80% confluence, and re-plated at a density of 3,000 cells/cm^2 under the same culture conditions. All experiments were carried out with cells at passage 5.
Human MSCs were cultured in 6-well plates in basal media for 24 h at a density of 10,000 cells/cm^2. TGF-β1 treatments were then prepared at either 1 ng/ml or 5 ng/ml alone or in the presence of either 10 μg/ml or 40 μg/ml of full length heparin, or 1 ng/ml of TGF-β1 with 10 μg/ml size-fractionated or selectively desulfated heparin, HS^PM, HS16+ or HS16−, and incubated at room temperature for 10 min before being added to the cells. Latent TGF-β1 (LTGF-β1) treatments were similarly prepared at 3.3 ng/ml alone or with 10 μg/ml of the various GAGs described above. For inhibitor studies, the cells were pre-treated for 30 min with 10 μM SB431542 (Sigma-Aldrich) or DMSO before treatment with TGF-β1. […] Samples were then immunoblotted with antibodies against SMAD2/3 (#3102, Cell Signaling), phosphorylated SMAD2 (pSMAD2, #3108, Cell Signaling), phosphorylated SMAD3 (pSMAD3, #9520, Cell Signaling) and actin (MAB1501R, Millipore). Densitometry was carried out using Quantity One software (version 4.6.6, Bio-Rad).

[2] = 6 h post-treatment, heparin and TGF-β1

T1 sequence (P01137 279-390 limits assumed): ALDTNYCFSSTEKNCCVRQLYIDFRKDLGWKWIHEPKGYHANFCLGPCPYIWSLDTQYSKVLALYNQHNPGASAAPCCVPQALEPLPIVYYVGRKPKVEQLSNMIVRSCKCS

TGF-β1 binding to immobilized GAG (TGF-β1): bound in a dose-dependent manner
Substance: heparin
pSMAD2 and pSMAD3 levels ([1]; 1 h post treatment, with TGF-β1): saturated | pSMAD2 level relative to equivalent dose of TGF-β1 without heparin [1, 2]: ~1.6 fold | pSMAD3 level relative to equivalent dose of TGF-β1 without heparin [1, 2]: ~1.35 fold | pSMAD levels relative to TGF-β1 alone ([1]; 24 h, heparin and TGF-β1): continued to be greater | pSMAD2 and pSMAD3 signal ([1]; TGF-β1 1 ng/mL with 40 μg/mL heparin, 6 h): unable to elicit the same effect | pSMAD2 and pSMAD3 levels ([1]; TGF-β1 1 ng/ml pre-incubated with 10 μg/ml GAG, 6 h): maintained a stronger pSMAD2 and pSMAD3 signal | pSMAD signal ([1]; TGF-β1 5 ng/mL with 10 or 40 μg/mL heparin, 6 h): neither dose of heparin was able enhance the pSMAD signal beyond that obtained from the growth factor alone | levels of pSMAD2 and pSMAD3 ([1]; heparin alone, no TGF-β1): No discernible levels

Source: patent US10596296B2, “Heparan sulphates” (Agency for Science, Technology and Research, priority 2014, dated 2020)
